Source: PubChem BioAssay (NCI)
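48-hour exposure; five concentrations; linearly interpolated endpoints. The concentration for 50% growth inhibition is given as GI50. The concentration for full growth arrest is given as TGI.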

System: MDA-N
Assay: DTP human tumour cell line panel, 48 h

SMILES	TGI [µM]
CC1=C(CO)C2=C(C)C3(CC3)[C@@](C)(O)C(=O)C2=C1	3.25
CC(=O)NC1=N/C(=C\c2ccc(Cl)cc2)C(=O)N1/C=C1\C(=O)Oc2ccccc2C1=O	> 100
Cc1nc2ccc(F)cc2c2c1CCN2c1ccc(Cl)cc1	21.7

System: OVCAR-8 ovarian
Assay: DTP human tumour cell line panel, 48 h

SMILES	TGI [µM]	GI50 [µM]
COc1cc2c(cc1OC)C1C[C@]3(CCN1CC2)C(=O)N(c1ccccc1)C(=O)N3C(C)=O (stereo partly specified)	> 200	–
CC1=C(CO)C2=C(C)C3(CC3)[C@@](C)(O)C(=O)C2=C1	0.631	–
CC(=O)NC1=N/C(=C\c2ccc(Cl)cc2)C(=O)N1/C=C1\C(=O)Oc2ccccc2C1=O	> 100	–
O=[N+]([O-])c1cccc2ccc(N/N=C/c3ccccc3O)nc12	> 100	> 100
C=CCc1ccc(O)c(-c2ccc(O)c(CC=C)c2)c1	> 60.9	32.8
Cc1nc2ccc(F)cc2c2c1CCN2c1ccc(Cl)cc1	34.2	–

System: SK-MEL-28 melanoma
Assay: DTP human tumour cell line panel, 48 h

SMILES	TGI [µM]	GI50 [µM]
COc1cc2c(cc1OC)C1C[C@]3(CCN1CC2)C(=O)N(c1ccccc1)C(=O)N3C(C)=O (stereo partly specified)	> 200	–
CC1=C(CO)C2=C(C)C3(CC3)[C@@](C)(O)C(=O)C2=C1	1.44	–
CC(=O)NC1=N/C(=C\c2ccc(Cl)cc2)C(=O)N1/C=C1\C(=O)Oc2ccccc2C1=O	> 100	–
O=[N+]([O-])c1cccc2ccc(N/N=C/c3ccccc3O)nc12	> 100	> 100
C=CCc1ccc(O)c(-c2ccc(O)c(CC=C)c2)c1	31	16.6
Cc1nc2ccc(F)cc2c2c1CCN2c1ccc(Cl)cc1	28	–

System: HCT-15 colon
Assay: DTP human tumour cell line panel, 48 h

SMILES	TGI [µM]	GI50 [µM]
COc1cc2c(cc1OC)C1C[C@]3(CCN1CC2)C(=O)N(c1ccccc1)C(=O)N3C(C)=O (stereo partly specified)	> 200	–
CC1=C(CO)C2=C(C)C3(CC3)[C@@](C)(O)C(=O)C2=C1	5.17	–
CC(=O)NC1=N/C(=C\c2ccc(Cl)cc2)C(=O)N1/C=C1\C(=O)Oc2ccccc2C1=O	> 100	–
O=[N+]([O-])c1cccc2ccc(N/N=C/c3ccccc3O)nc12	> 100	> 100
C=CCc1ccc(O)c(-c2ccc(O)c(CC=C)c2)c1	33.7	16.5
Cc1nc2ccc(F)cc2c2c1CCN2c1ccc(Cl)cc1	> 100	–

System: LOX IMVI melanoma
Assay: DTP human tumour cell line panel, 48 h

SMILES	TGI [µM]	GI50 [µM]
CC1=C(CO)C2=C(C)C3(CC3)[C@@](C)(O)C(=O)C2=C1	3.14	–
CC(=O)NC1=N/C(=C\c2ccc(Cl)cc2)C(=O)N1/C=C1\C(=O)Oc2ccccc2C1=O	> 100	–
O=[N+]([O-])c1cccc2ccc(N/N=C/c3ccccc3O)nc12	> 100	> 100
C=CCc1ccc(O)c(-c2ccc(O)c(CC=C)c2)c1	34.3	15.7
Cc1nc2ccc(F)cc2c2c1CCN2c1ccc(Cl)cc1	33	–

System: SF-295 CNS
Assay: DTP human tumour cell line panel, 48 h

SMILES	TGI [µM]	GI50 [µM]
COc1cc2c(cc1OC)C1C[C@]3(CCN1CC2)C(=O)N(c1ccccc1)C(=O)N3C(C)=O (stereo partly specified)	> 200	–
CC(=O)NC1=N/C(=C\c2ccc(Cl)cc2)C(=O)N1/C=C1\C(=O)Oc2ccccc2C1=O	> 100	–
O=[N+]([O-])c1cccc2ccc(N/N=C/c3ccccc3O)nc12	> 100	> 87.6
C=CCc1ccc(O)c(-c2ccc(O)c(CC=C)c2)c1	44.7	19.6
Cc1nc2ccc(F)cc2c2c1CCN2c1ccc(Cl)cc1	> 100	–

System: HCT-116 colon
Assay: DTP human tumour cell line panel, 48 h

SMILES	TGI [µM]	GI50 [µM]
COc1cc2c(cc1OC)C1C[C@]3(CCN1CC2)C(=O)N(c1ccccc1)C(=O)N3C(C)=O (stereo partly specified)	> 200	–
CC1=C(CO)C2=C(C)C3(CC3)[C@@](C)(O)C(=O)C2=C1	0.504	–
CC(=O)NC1=N/C(=C\c2ccc(Cl)cc2)C(=O)N1/C=C1\C(=O)Oc2ccccc2C1=O	> 100	–
O=[N+]([O-])c1cccc2ccc(N/N=C/c3ccccc3O)nc12	> 100	2.19
C=CCc1ccc(O)c(-c2ccc(O)c(CC=C)c2)c1	> 54	20
Cc1nc2ccc(F)cc2c2c1CCN2c1ccc(Cl)cc1	36.2	–

System: A498 renal
Assay: DTP human tumour cell line panel, 48 h

SMILES	TGI [µM]	GI50 [µM]
COc1cc2c(cc1OC)C1C[C@]3(CCN1CC2)C(=O)N(c1ccccc1)C(=O)N3C(C)=O (stereo partly specified)	> 200	–
CC1=C(CO)C2=C(C)C3(CC3)[C@@](C)(O)C(=O)C2=C1	0.507	–
CC(=O)NC1=N/C(=C\c2ccc(Cl)cc2)C(=O)N1/C=C1\C(=O)Oc2ccccc2C1=O	57.8	–
O=[N+]([O-])c1cccc2ccc(N/N=C/c3ccccc3O)nc12	> 100	> 100
C=CCc1ccc(O)c(-c2ccc(O)c(CC=C)c2)c1	31.9	17.4
Cc1nc2ccc(F)cc2c2c1CCN2c1ccc(Cl)cc1	73.1	–

System: OVCAR-4 ovarian
Assay: DTP human tumour cell line panel, 48 h

SMILES	TGI [µM]	GI50 [µM]
COc1cc2c(cc1OC)C1C[C@]3(CCN1CC2)C(=O)N(c1ccccc1)C(=O)N3C(C)=O (stereo partly specified)	> 200	–
CC1=C(CO)C2=C(C)C3(CC3)[C@@](C)(O)C(=O)C2=C1	0.703	–
CC(=O)NC1=N/C(=C\c2ccc(Cl)cc2)C(=O)N1/C=C1\C(=O)Oc2ccccc2C1=O	> 100	–
O=[N+]([O-])c1cccc2ccc(N/N=C/c3ccccc3O)nc12	> 100	> 100
C=CCc1ccc(O)c(-c2ccc(O)c(CC=C)c2)c1	35.8	15.5
Cc1nc2ccc(F)cc2c2c1CCN2c1ccc(Cl)cc1	> 100	–

System: MCF7 breast
Assay: DTP human tumour cell line panel, 48 h

SMILES	TGI [µM]	GI50 [µM]
CC1=C(CO)C2=C(C)C3(CC3)[C@@](C)(O)C(=O)C2=C1	1.87	–
CC(=O)NC1=N/C(=C\c2ccc(Cl)cc2)C(=O)N1/C=C1\C(=O)Oc2ccccc2C1=O	> 100	–
O=[N+]([O-])c1cccc2ccc(N/N=C/c3ccccc3O)nc12	> 100	2.34
C=CCc1ccc(O)c(-c2ccc(O)c(CC=C)c2)c1	26.2	8.06
Cc1nc2ccc(F)cc2c2c1CCN2c1ccc(Cl)cc1	26.4	–

System: NCI-H522 lung
Assay: DTP human tumour cell line panel, 48 h

SMILES	TGI [µM]	GI50 [µM]
CC1=C(CO)C2=C(C)C3(CC3)[C@@](C)(O)C(=O)C2=C1	0.682	–
CC(=O)NC1=N/C(=C\c2ccc(Cl)cc2)C(=O)N1/C=C1\C(=O)Oc2ccccc2C1=O	> 100	–
O=[N+]([O-])c1cccc2ccc(N/N=C/c3ccccc3O)nc12	> 39.6	–
C=CCc1ccc(O)c(-c2ccc(O)c(CC=C)c2)c1	26.2	10.4
Cc1nc2ccc(F)cc2c2c1CCN2c1ccc(Cl)cc1	30.5	–

System: IGROV1 ovarian
Assay: DTP human tumour cell line panel, 48 h

SMILES	TGI [µM]	GI50 [µM]
COc1cc2c(cc1OC)C1C[C@]3(CCN1CC2)C(=O)N(c1ccccc1)C(=O)N3C(C)=O (stereo partly specified)	> 200	–
CC1=C(CO)C2=C(C)C3(CC3)[C@@](C)(O)C(=O)C2=C1	0.529	–
CC(=O)NC1=N/C(=C\c2ccc(Cl)cc2)C(=O)N1/C=C1\C(=O)Oc2ccccc2C1=O	> 100	–
C=CCc1ccc(O)c(-c2ccc(O)c(CC=C)c2)c1	49.5	5.67
Cc1nc2ccc(F)cc2c2c1CCN2c1ccc(Cl)cc1	40	–

System: T-47D breast
Assay: DTP human tumour cell line panel, 48 h

SMILES	TGI [µM]	GI50 [µM]
CC1=C(CO)C2=C(C)C3(CC3)[C@@](C)(O)C(=O)C2=C1	2.48	–
CC(=O)NC1=N/C(=C\c2ccc(Cl)cc2)C(=O)N1/C=C1\C(=O)Oc2ccccc2C1=O	> 100	–
O=[N+]([O-])c1cccc2ccc(N/N=C/c3ccccc3O)nc12	> 100	1.07
C=CCc1ccc(O)c(-c2ccc(O)c(CC=C)c2)c1	> 53.9	20.3

System: SK-OV-3 ovarian
Assay: DTP human tumour cell line panel, 48 h

SMILES	TGI [µM]	GI50 [µM]
CC1=C(CO)C2=C(C)C3(CC3)[C@@](C)(O)C(=O)C2=C1	0.926	–
CC(=O)NC1=N/C(=C\c2ccc(Cl)cc2)C(=O)N1/C=C1\C(=O)Oc2ccccc2C1=O	> 100	–
O=[N+]([O-])c1cccc2ccc(N/N=C/c3ccccc3O)nc12	> 100	> 100
C=CCc1ccc(O)c(-c2ccc(O)c(CC=C)c2)c1	50.1	22.1
Cc1nc2ccc(F)cc2c2c1CCN2c1ccc(Cl)cc1	> 100	–

System: OVCAR-3 ovarian
Assay: DTP human tumour cell line panel, 48 h

SMILES	TGI [µM]	GI50 [µM]
COc1cc2c(cc1OC)C1C[C@]3(CCN1CC2)C(=O)N(c1ccccc1)C(=O)N3C(C)=O (stereo partly specified)	> 200	–
CC1=C(CO)C2=C(C)C3(CC3)[C@@](C)(O)C(=O)C2=C1	0.735	–
CC(=O)NC1=N/C(=C\c2ccc(Cl)cc2)C(=O)N1/C=C1\C(=O)Oc2ccccc2C1=O	> 100	–
O=[N+]([O-])c1cccc2ccc(N/N=C/c3ccccc3O)nc12	> 100	4.48
C=CCc1ccc(O)c(-c2ccc(O)c(CC=C)c2)c1	30.6	14.5
Cc1nc2ccc(F)cc2c2c1CCN2c1ccc(Cl)cc1	> 100	–

System: SW-620 colon
Assay: DTP human tumour cell line panel, 48 h

SMILES	TGI [µM]
COc1cc2c(cc1OC)C1C[C@]3(CCN1CC2)C(=O)N(c1ccccc1)C(=O)N3C(C)=O (stereo partly specified)	> 200
